# According to publication PMC12454639, “Direct disassembly of α-syn preformed fibrils into α-syn monomers by an all-D-peptide” (NPJ Parkinson's Disease, 2025):
# Square brackets hold non-standard residues; d marks the D form. Peptide text beside a SMILES is read from it.
# System: α-syn monomer
# Test: 100 kDa MWCO fractionation of de novo aggregation samples followed by ELISA
# Type: biochemical, Human
# Settings: 7 days, ELISA n = 3
# Experimental: Fig. 7 De novo aggregation analysis of α-syn in the presence and absence of SVD-1a. A De novo ThT assay of 10 µM α-syn with and without 20 µM SVD-1a. ThT fluorescence progression was measured in a 96-well non-binding half-area plate (Corning, USA) with a FLUOStar plate reader (BMG labtech, GE) at λex = 448 nm and λem = 482 nm with 300 rpm continuous orbital shaking between reads. For induction of aggregation, one borosilicate bead per well was added (d = 3 mm, Hilgenberg, GE). Data are shown as mean values with ±SD (n = 5). B CD secondary structure analysis of de novo aggregation samples. Samples were incubated as described in (A) without added ThT (n = 3) and subsequently pooled for CD analysis. Far-UV ellipticity of the samples was measured in a quartz cuvette (l = 10 mm) in a J-1100 CD-spectrometer (Jasco, GE). In addition to (A), a sample with 20 µM SVD-1a alone was incubated under identical conditions and later used as a reference for the sample with α-syn and SVD-1a. For this sample (α-syn + SVD-1a (after incubation)), the SVD-1a reference subtracted CD spectrum is shown. […] D α-Syn in the flow through (MWCO < 100 kDa) was quantified using an α-syn specific ELISA (BioLegend, Human α-Synuclein (Colorimetric), 448607, n = 3). E Retentate and flow-through samples were analyzed using SDS–PAGE with silver staining. […]
smiles,measurement,setting,value
CC[C@@H](C)[C@@H](NC(=O)[C@@H](Cc1c[nH]cn1)NC(=O)[C@@H](CCC(=O)O)NC(=O)[C@@H](CCC(N)=O)NC(=O)[C@@H](Cc1c[nH]c2ccccc12)NC(=O)[C@@H](Cc1ccc(O)cc1)NC(=O)[C@H](NC(=O)[C@@H](CCC(=O)O)NC(=O)[C@@H](Cc1c[nH]cn1)NC(=O)[C@H](NC(=O)[C@H]1CCCN1C(=O)[C@@H](CC(C)C)NC(=O)[C@H](N)CCCNC(=N)N)[C@H](C)O)[C@H](C)O)C(=O)N[C@H](Cc1c[nH]c2ccccc12)C(=O)N[C@H](Cc1c[nH]cn1)C(=O)N[C@H](C)C(=O)N[C@H](CCCNC(=N)N)C(=O)N[C@H](CCCNC(=N)N)C(=O)N[C@H](CCCNC(=N)N)C(=O)N[C@H](CCCNC(=N)N)C(=O)N[C@H](CCCNC(=N)N)C(N)=O [SVD-1a] (H-[dR][dL][dP][dT][dH][dE][dT][dY][dW][dQ][dE][dH][dI][dW][dH][dA][dR][dR][dR][dR][dR]-NH2),monomeric α-syn in flow-through,"10 µM α-syn with 5, 10, 20 µM SVD-1a, controls ~3.7 µM before, ~0.3 µM after incubation without compound",concentration-dependent stabilization of monomeric α-syn
same,monomeric α-syn in flow-through vs non-pre-incubated control,"20 µM SVD-1a, 10 µM α-syn",restoring monomer levels in the eluate to those of the non-pre-incubated control
